Test results reported in patent publication US9598424B2 (Takeda Pharmaceutical Company Limited, priority 2014, dated 2017).

What was measured:
[1] = target: T1, TBK1 (Homo sapiens, UniProt Q9UHD2); experiment: Inhibition of TBK1 in Cells (TLR3 driven ISRE β-lactamase reporter assay); assay type: cell-based; details: poly IC-LMW stimulation 16 hrs, -log(EC50), EC50 molar; for EC50: read-out: Inhibition of TBK1 in cells pEC50 (EC) (converted)
T1 construct: host or cells: RA1-ISRE beta-lactamase reporter cells
T1 sequence (Q9UHD2 1-729): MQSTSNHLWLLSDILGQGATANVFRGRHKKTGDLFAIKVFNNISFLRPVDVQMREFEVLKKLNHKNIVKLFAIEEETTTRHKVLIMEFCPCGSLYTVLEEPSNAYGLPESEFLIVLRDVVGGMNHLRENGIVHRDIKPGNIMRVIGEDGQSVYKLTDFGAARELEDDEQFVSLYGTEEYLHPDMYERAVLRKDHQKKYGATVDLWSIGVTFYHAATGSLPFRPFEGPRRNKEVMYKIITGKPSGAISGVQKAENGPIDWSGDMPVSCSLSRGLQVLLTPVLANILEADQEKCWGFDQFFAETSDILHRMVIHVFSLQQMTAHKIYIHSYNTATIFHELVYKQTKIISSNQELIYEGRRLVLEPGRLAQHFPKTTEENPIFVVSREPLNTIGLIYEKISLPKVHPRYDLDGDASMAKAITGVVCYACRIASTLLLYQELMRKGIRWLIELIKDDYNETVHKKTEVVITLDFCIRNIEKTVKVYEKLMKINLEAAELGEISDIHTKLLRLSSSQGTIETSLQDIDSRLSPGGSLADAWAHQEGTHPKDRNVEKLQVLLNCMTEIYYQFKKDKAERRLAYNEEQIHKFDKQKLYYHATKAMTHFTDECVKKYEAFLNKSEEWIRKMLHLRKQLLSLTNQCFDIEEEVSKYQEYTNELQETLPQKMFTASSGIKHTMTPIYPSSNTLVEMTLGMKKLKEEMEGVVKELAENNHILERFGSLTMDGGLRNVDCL
In short: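 RA1-ISRE β-lactamase reporter cells (50,000/well) treated with 11-point 2.5-fold compound dilutions and stimulated with 0.15 mg/ml poly IC-LMW for 16 hrs. Reporter read by CCF4-AM FRET; EC50 from non-linear fit of percent inhibition, reported as pEC50 (molar).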

[2] = target: T2, Full length human TBK1 (Homo sapiens, UniProt Q9UHD2); experiment: Inhibition of TBK1 Enzyme (Caliper microfluidic assay); assay type: biochemical; details: 25 μM ATP, 60 min at RT, -log(IC50), IC50 molar; for IC50: read-out: TBK1 Inhibition (pIC50) (converted)
T2 construct: Full length human TBK1 with an N-terminal His-tag; His-tag (N); made in house; host or cells: Sf9 insect cells (baculovirus, pFastBac1)
T2 sequence (Q9UHD2 1-729): T1 sequence (Q9UHD2 1-729)
In short: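 Enzyme: His-tagged full-length TBK1 expressed in Sf9. Reaction 60 min at RT in 20 mM Hepes pH 7.4, 10 mM MgCl2, 1 mM EDTA, 0.01% Brij-L23, 1 mM DTT, with 5FAM-peptide (added at 1 μM) and TBK1/ATP mix (added at 3 nM/25 μM), then EDTA-quenched. Conversion measured by microfluidic separation; 11-point 2.5-fold series fit to pIC50.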

Compound | EC50 [1] [nM] | melting point [°C] | IC50 [2] [nM] | Inhibition of TBK1 in cells pEC50 (EC) [1] | TBK1 Inhibition (pIC50) [2]
Cn1nc(-c2ccc3nc(NC(=O)C4CC4)cn3c2)cc1C(=O)NCC(F)(F)F [Example 1, 3-(2-(cyclopropanecarboxamido)imidazo[1,2-a]pyridin-6-yl)-1-methyl-N-(2,2,2-trifluoroethyl)-1H-pyrazole-5-carboxamide] | 8320 | 251 to 255 | 251 | – | –
Cn1nc(-c2ccc3nc(NC(=O)C4CC4)cn3c2)cc1C(=O)NCC(F)F [Example 2, 3-(2-(cyclopropanecarboxamido)imidazo[1,2-a]pyridin-6-yl)-N-(2,2-difluoroethyl)-1-methyl-1H-pyrazole-5-carboxamide] | 8320 | 284 to 290 | 316 | – | –
CC(F)(F)CNC(=O)c1cc(-c2ccc3nc(NC(=O)C4CC4)cn3c2)cs1 [Example 3, 4-(2-(cyclopropanecarboxamido)imidazo[1,2-a]pyridin-6-yl)-N-(2,2-difluoropropyl)thiophene-2-carboxamide] | 166 | 117 to 119 | 5.01 | – | –
O=C(NCC(F)(F)F)c1nc(-c2ccc3nc(NC(=O)C4CC4)cn3c2)cs1 [Example 4, 4-(2-(cyclopropanecarboxamido)imidazo[1,2-a]pyridin-6-yl)-N-(2,2,2-trifluoroethyl)thiazole-2-carboxamide] | 617 | 279 to 282 | 5.01 | – | –
CC(=O)Nc1cn2cc(-c3csc(C(=O)NCC(F)(F)F)c3)ccc2n1 [Example 13, 4-(2-acetamidoimidazo[1,2-a]pyridin-6-yl)-N-(2,2,2-trifluoroethyl)thiophene-2-carboxamide] | 813 | 180 to 182 | 25.1 | – | –
COCC(=O)Nc1cn2cc(-c3csc(C(=O)NCC(F)(F)F)c3)ccc2n1 [Example 14, 4-(2-(2-methoxyacetamido)imidazo[1,2-a]pyridin-6-yl)-N-(2,2,2-trifluoroethyl)thiophene-2-carboxamide] | 1740 | 230 to 232 | 39.8 | – | –
COCCC(=O)Nc1cn2cc(-c3csc(C(=O)NCC(F)(F)F)c3)ccc2n1 [Example 15, 4-(2-(3-methoxypropanamido)imidazo[1,2-a]pyridin-6-yl)-N-(2,2,2-trifluoroethyl)thiophene-2-carboxamide] | 933 | 231 to 233 | 25.1 | – | –
O=C(NC1COCC1O)c1nc(-c2ccc3nc(NC(=O)C4CC4)cn3c2)cs1 (stereo not drawn) [Example 109, 4-(2-(cyclopropanecarboxamido)imidazo[1,2-a]pyridin-6-yl)-N-(4-hydroxytetrahydrofuran-3-yl)thiazole-2-carboxamide] | 3240 | – | 63.1 | – | –
O=C(Nc1cn2cc(-c3csc(C(=O)N4CCC(O)C4)n3)ccc2n1)C1CC1 (stereo not drawn) [Example 112, N-(6-(2-(3-hydroxypyrrolidine-1-carbonyl)thiazol-4-yl)imidazo[1,2-a]pyridin-2-yl)cyclopropanecarboxamide] | 4370 | – | 79.4 | – | –
(R)-4-(2-(cyclopropanecarboxamido)imidazo[1,2-a]pyrazin-6-yl)-N-(1,1,1-trifluoropropan-2-yl)thiazole-2-carboxamide [Example 7] | – | – | – | 6.41 | 8.1

Now from value to compound:

EC50 [1] [nM] | melting point [°C] | IC50 [2] [nM] | Inhibition of TBK1 in cells pEC50 (EC) [1] | TBK1 Inhibition (pIC50) [2] | Compound
2690 | – | 126 | – | – | O=C(Nc1cn2cc(-c3csc(C(=O)N4CC(O)C4)n3)ccc2n1)C1CC1 [Example 113, N-(6-(2-(3-hydroxyazetidine-1-carbonyl)thiazol-4-yl)imidazo[1,2-a]pyridin-2-yl)cyclopropanecarboxamide]
1620 | – | 158 | – | – | O=C(Nc1cn2cc(-c3csc(C(=O)N4CCCC4CO)n3)ccc2n1)C1CC1 (stereo not drawn) [Example 114, N-(6-(2-(2-(hydroxymethyl)pyrrolidine-1-carbonyl)thiazol-4-yl)imidazo[1,2-a]pyridin-2-yl)cyclopropanecarboxamide]
1510 | – | 79.4 | – | – | O=C(NCC(O)C(F)(F)F)c1nc(-c2ccc3nc(NC(=O)C4CC4)cn3c2)cs1 (stereo not drawn) [Example 115, 4-(2-(cyclopropanecarboxamido)imidazo[1,2-a]pyridin-6-yl)-N-(3,3,3-trifluoro-2-hydroxypropyl)thiazole-2-carboxamide]
3020 | – | 200 | – | – | O=C(Nc1cn2cc(-c3cc(C(=O)N4CCCC4)[nH]n3)ccc2n1)C1CC1 [Example 116]
6460 | – | 50.1 | – | – | CC(C)C(NC(=O)c1cc(-c2ccc3nc(NC(=O)C4CC4)cn3c2)cs1)C(F)(F)F (stereo not drawn) [Example 117, 4-(2-(cyclopropanecarboxamido)imidazo[1,2-a]pyridin-6-yl)-N-(1,1,1-trifluoro-3-methylbutan-2-yl)thiophene-2-carboxamide]
676 | – | 31.6 | – | – | O=C(NC1(C(F)(F)F)CC1)c1cc(-c2ccc3nc(NC(=O)C4CC4)cn3c2)cs1 [Example 118, 4-(2-(cyclopropanecarboxamido)imidazo[1,2-a]pyridin-6-yl)-N-(1-(trifluoromethyl)cyclopropyl)thiophene-2-carboxamide]
331 | – | 10 | – | – | O=C(Nc1cn2cc(-c3csc(C(=O)N(CCCO)CC(F)(F)F)c3)ccc2n1)C1CC1 [Example 119, 4-(2-(cyclopropanecarboxamido)imidazo[1,2-a]pyridin-6-yl)-N-(3-hydroxypropyl)-N-(2,2,2-trifluoroethyl)thiophene-2-carboxamide]
851 | – | 158 | – | – | O=C(Nc1cn2cc(-c3csc(C(=O)N(CCO)CC(F)(F)F)c3)ccc2n1)C1CC1 [Example 120, 4-(2-(cyclopropanecarboxamido)imidazo[1,2-a]pyridin-6-yl)-N-(2-hydroxyethyl)-N-(2,2,2-trifluoroethyl)thiophene-2-carboxamide]
1120 | – | 39.8 | – | – | COCCN(CC(F)F)C(=O)c1cc(-c2ccc3nc(NC(=O)C4CC4)cn3c2)cs1 [Example 121, 4-(2-(cyclopropanecarboxamido)imidazo[1,2-a]pyridin-6-yl)-N-(2,2-difluoroethyl)-N-(2-methoxyethyl)thiophene-2-carboxamide]
3720 | – | 126 | – | – | O=C(NC1COC1)c1nc(-c2ccc3nc(NC(=O)C4CC4)cn3c2)cs1 [Example 122, 4-(2-(cyclopropanecarboxamido)imidazo[1,2-a]pyridin-6-yl)-N-(oxetan-3-yl)thiazole-2-carboxamide]
2190 | – | 100 | – | – | CC1CCCN1C(=O)c1cc(-c2ccc3nc(NC(=O)C4CC4)cn3c2)n[nH]1 (stereo not drawn) [Example 123, N-(6-(5-(2-methylpyrrolidine-1-carbonyl)-1H-pyrazol-3-yl)imidazo[1,2-a]pyridin-2-yl)cyclopropanecarboxamide]
2140 | – | 251 | – | – | O=C(Nc1cn2cc(-c3csc(C(=O)N4CC(CO)C4)n3)ccc2n1)C1CC1 [Example 124, N-(6-(2-(3-(hydroxymethyl)azetidine-1-carbonyl)thiazol-4-yl)imidazo[1,2-a]pyridin-2-yl)cyclopropanecarboxamide]
19.1 | – | 6.31 | – | – | N[C@@H]1CCCC(F)(F)[C@@H]1NC(=O)c1cc(-c2ccc3nc(NC(=O)C4CC4)cn3c2)cs1 [Example 125, N-((1R,6R)-6-amino-2,2-difluorocyclohexyl)-4-(2-(cyclopropanecarboxamido)imidazo[1,2-a]pyridin-6-yl)thiophene-2-carboxamide]
55 | – | 10 | – | – | N[C@H]1CCCC(F)(F)[C@@H]1NC(=O)c1cc(-c2ccc3nc(NC(=O)C4CC4)cn3c2)cs1 [Example 126, N-((1R,6S)-6-amino-2,2-difluorocyclohexyl)-4-(2-(cyclopropanecarboxamido)imidazo[1,2-a]pyridin-6-yl)thiophene-2-carboxamide]
209 | – | 5.01 | – | – | O=C(Nc1cn2cc(-n3ccc(C(=O)N(CCO)CC(F)(F)F)n3)ncc2n1)C1CC1 [Example 127, 1-(2-(cyclopropanecarboxamido)imidazo[1,2-a]pyrazin-6-yl)-N-(2-hydroxyethyl)-N-(2,2,2-trifluoroethyl)-1H-pyrazole-3-carboxamide]
